Results taken from ChEMBL document CHEMBL5375952, “Discovery of Novel 8-Hydroxyquinoline Derivatives with Potent In Vitro and In Vivo Antifungal Activity” (J Med Chem, 2023).
Converted amounts (≈) assume the structure as drawn.

Experiments:
[1] = system: Candida albicans; test: Antifungal activity against Candida albicans SC5314 assessed as fungal growth inhibition incubated for 48 hrs by broth microdilution method; format: functional
[2] = system: Candida albicans; test: Antifungal activity against Candida albicans 21 assessed as fungal growth inhibition incubated for 48 hrs by broth microdilution method; format: functional
[3] = system: Nakaseomyces glabratus; test: Antifungal activity against Candida glabrata 201 assessed as fungal growth inhibition incubated for 48 hrs by broth microdilution method; format: functional
[4] = system: Nakaseomyces glabratus; test: Antifungal activity against Candida glabrata 202 assessed as fungal growth inhibition incubated for 48 hrs by broth microdilution method; format: functional
[5] = system: Nakaseomyces glabratus; test: Antifungal activity against Candida glabrata 205 assessed as fungal growth inhibition incubated for 48 hrs by broth microdilution method; format: functional
[6] = system: Pichia kudriavzevii; test: Antifungal activity against Candida krusei 68 assessed as fungal growth inhibition incubated for 48 hrs by broth microdilution method; format: functional
[7] = system: Pichia kudriavzevii; test: Antifungal activity against Candida krusei 477 assessed as fungal growth inhibition incubated for 48 hrs by broth microdilution method; format: functional
[8] = system: Candida parapsilosis; test: Antifungal activity against Candida parapsilosis 105 assessed as fungal growth inhibition incubated for 48 hrs by broth microdilution method; format: functional; details: Lodderomyces parapsilosis
[9] = system: Candida parapsilosis; test: Antifungal activity against Candida parapsilosis 107 assessed as fungal growth inhibition incubated for 48 hrs by broth microdilution method; format: functional; details: Lodderomyces parapsilosis
[10] = system: Candida parapsilosis; test: Antifungal activity against Candida parapsilosis 125 assessed as fungal growth inhibition incubated for 48 hrs by broth microdilution method; format: functional; details: Lodderomyces parapsilosis
[11] = system: Candida tropicalis; test: Antifungal activity against Candida tropicalis 176 assessed as fungal growth inhibition incubated for 48 hrs by broth microdilution method; format: functional
[12] = system: Candida tropicalis; test: Antifungal activity against Candida tropicalis 184 assessed as fungal growth inhibition incubated for 48 hrs by broth microdilution method; format: functional
[13] = system: Cryptococcus neoformans; test: Antifungal activity against Cryptococcus neoformans 443 assessed as fungal growth inhibition incubated for 48 hrs by broth microdilution method; format: functional
[14] = system: Cryptococcus neoformans; test: Antifungal activity against Cryptococcus neoformans 444 assessed as fungal growth inhibition incubated for 48 hrs by broth microdilution method; format: functional
[15] = system: Cryptococcus neoformans; test: Antifungal activity against Cryptococcus neoformans 445 assessed as fungal growth inhibition incubated for 48 hrs by broth microdilution method; format: functional
[16] = system: Aspergillus fumigatus; test: Antifungal activity against Aspergillus fumigatus 023-12 assessed as fungal growth inhibition incubated for 48 hrs by broth microdilution method; format: functional
[17] = system: Aspergillus fumigatus; test: Antifungal activity against Aspergillus fumigatus A assessed as fungal growth inhibition incubated for 48 hrs by broth microdilution method; format: functional
[18] = system: Aspergillus fumigatus; test: Antifungal activity against Aspergillus fumigatus 7544 assessed as fungal growth inhibition incubated for 48 hrs by broth microdilution method; format: functional
[19] = Cytotoxicity against human Caco-2 cells assessed as cell growth inhibition incubated for 24 hrs by CCK8 assay; format: toxicity, cell-based
[20] = system: Candida albicans; test: Antifungal activity against Candida albicans 25 assessed as fungal growth inhibition incubated for 48 hrs by broth microdilution method; format: functional
[21] = system: Candida albicans; test: Antifungal activity against Candida albicans 337 assessed as fungal growth inhibition incubated for 48 hrs by broth microdilution method; format: functional
[22] = system: Candida albicans; test: Antifungal activity against Candida albicans 338 assessed as fungal growth inhibition incubated for 48 hrs by broth microdilution method; format: functional
[23] = system: [Candida] auris; test: Antifungal activity against Candida auris 276 assessed as fungal growth inhibition incubated for 48 hrs by broth microdilution method; format: functional; details: Candidozyma auris
[24] = system: [Candida] auris; test: Antifungal activity against Candida auris 277 assessed as fungal growth inhibition incubated for 48 hrs by broth microdilution method; format: functional; details: Candidozyma auris
[25] = system: [Candida] auris; test: Antifungal activity against Candida auris 278 assessed as fungal growth inhibition incubated for 48 hrs by broth microdilution method; format: functional; details: Candidozyma auris
[26] = system: [Candida] auris; test: Antifungal activity against Candida auris CBS 12372 assessed as fungal growth inhibition incubated for 48 hrs by broth microdilution method; format: functional; details: Candidozyma auris
[27] = system: [Candida] auris; test: Antifungal activity against Candida auris 887 assessed as fungal growth inhibition incubated for 48 hrs by broth microdilution method; format: functional; details: Candidozyma auris
[28] = system: [Candida] auris; test: Antifungal activity against Candida auris 888 assessed as fungal growth inhibition incubated for 48 hrs by broth microdilution method; format: functional; details: Candidozyma auris
[29] = system: Nakaseomyces glabratus; test: Antifungal activity against Candida glabrata 204 assessed as fungal growth inhibition incubated for 48 hrs by broth microdilution method; format: functional
[30] = system: Pichia kudriavzevii; test: Antifungal activity against Candida krusei 471 assessed as fungal growth inhibition incubated for 48 hrs by broth microdilution method; format: functional
[31] = system: Pichia kudriavzevii; test: Antifungal activity against Candida krusei 472 assessed as fungal growth inhibition incubated for 48 hrs by broth microdilution method; format: functional
[32] = system: Pichia kudriavzevii; test: Antifungal activity against Candida krusei 474 assessed as fungal growth inhibition incubated for 48 hrs by broth microdilution method; format: functional
[33] = system: Candida parapsilosis; test: Antifungal activity against Candida parapsilosis 104 assessed as fungal growth inhibition incubated for 48 hrs by broth microdilution method; format: functional; details: Lodderomyces parapsilosis
[34] = system: Candida parapsilosis; test: Antifungal activity against Candida parapsilosis ATCC22019 assessed as fungal growth inhibition incubated for 48 hrs by broth microdilution method; format: functional; details: Lodderomyces parapsilosis
[35] = system: Candida parapsilosis; test: Antifungal activity against Candida parapsilosis 106 assessed as fungal growth inhibition incubated for 48 hrs by broth microdilution method; format: functional; details: Lodderomyces parapsilosis
[36] = system: Candida tropicalis; test: Antifungal activity against Candida tropicalis 172 assessed as fungal growth inhibition incubated for 48 hrs by broth microdilution method; format: functional
[37] = system: Candida tropicalis; test: Antifungal activity against Candida tropicalis 177 assessed as fungal growth inhibition incubated for 48 hrs by broth microdilution method; format: functional
[38] = system: Candida tropicalis; test: Antifungal activity against Candida tropicalis 182 assessed as fungal growth inhibition incubated for 48 hrs by broth microdilution method; format: functional
[39] = system: Cryptococcus neoformans; test: Antifungal activity against Cryptococcus neoformans H99 assessed as fungal growth inhibition incubated for 48 hrs by broth microdilution method; format: functional
[40] = system: Cryptococcus neoformans; test: Antifungal activity against Cryptococcus neoformans 56992 assessed as fungal growth inhibition incubated for 48 hrs by broth microdilution method; format: functional
[41] = system: Cryptococcus neoformans; test: Antifungal activity against Cryptococcus neoformans HN1 assessed as fungal growth inhibition incubated for 48 hrs by broth microdilution method; format: functional
[42] = system: Cryptococcus neoformans; test: Antifungal activity against Cryptococcus neoformans HN2 assessed as fungal growth inhibition incubated for 48 hrs by broth microdilution method; format: functional
[43] = system: Cryptococcus neoformans; test: Antifungal activity against Cryptococcus neoformans HN2-40 assessed as fungal growth inhibition incubated for 48 hrs by broth microdilution method; format: functional
[44] = system: Cryptococcus neoformans; test: Antifungal activity against Cryptococcus neoformans HN15 assessed as fungal growth inhibition incubated for 48 hrs by broth microdilution method; format: functional
[45] = system: Cryptococcus neoformans; test: Antifungal activity against Cryptococcus neoformans HN17 assessed as fungal growth inhibition incubated for 48 hrs by broth microdilution method; format: functional
[46] = system: Cryptococcus neoformans; test: Antifungal activity against Cryptococcus neoformans HN19 assessed as fungal growth inhibition incubated for 48 hrs by broth microdilution method; format: functional
[47] = system: Cryptococcus neoformans; test: Antifungal activity against Cryptococcus neoformans HN20 assessed as fungal growth inhibition incubated for 48 hrs by broth microdilution method; format: functional
[48] = system: Cryptococcus neoformans; test: Antifungal activity against Cryptococcus neoformans BJ3 assessed as fungal growth inhibition incubated for 48 hrs by broth microdilution method; format: functional
[49] = Antifungal activity against Cryptococcus gattii WM178 assessed as fungal growth inhibition incubated for 48 hrs by broth microdilution method; format: functional, Cryptococcus gattii VGI
[50] = Antifungal activity against Cryptococcus gattii WM179 assessed as fungal growth inhibition incubated for 48 hrs by broth microdilution method; format: functional, Cryptococcus gattii VGI
[51] = Antifungal activity against Cryptococcus gattii E566 assessed as fungal growth inhibition incubated for 48 hrs by broth microdilution method; format: functional, Cryptococcus gattii VGI
[52] = Antifungal activity against Cryptococcus gattii SCZ20024 assessed as fungal growth inhibition incubated for 48 hrs by broth microdilution method; format: functional, Cryptococcus gattii VGI
[53] = Antifungal activity against Cryptococcus gattii SCZ20031 assessed as fungal growth inhibition incubated for 48 hrs by broth microdilution method; format: functional, Cryptococcus gattii VGI

## CCN(CC)c1ccc(C(NC(=O)C(C)C)c2ccc3cccnc3c2O)cc1 (stereo not drawn)
[1]
  MIC: 0.063 µg/mL (≈ 0.161 µM)
[2]
  MIC: ≤ 0.125 µg/mL
[3]
  MIC: 0.032 µg/mL (≈ 0.0817 µM)
[4]
  MIC: 0.032 µg/mL (≈ 0.0817 µM)
[5]
  MIC: 0.125 µg/mL (≈ 0.319 µM)
[6]
  MIC: 0.032 µg/mL (≈ 0.0817 µM)
[7]
  MIC: 0.125 µg/mL (≈ 0.319 µM)
[8]
  MIC: 0.125 µg/mL (≈ 0.319 µM)
[9]
  MIC: 0.125 µg/mL (≈ 0.319 µM)
[10]
  MIC: 0.125 µg/mL (≈ 0.319 µM)
[11]
  MIC: 0.016 µg/mL (≈ 0.0409 µM)
[12]
  MIC: 0.125 µg/mL (≈ 0.319 µM)
[13]
  MIC: 0.016 µg/mL (≈ 0.0409 µM)
[14]
  MIC: 0.016 µg/mL (≈ 0.0409 µM)
[15]
  MIC: 0.016 µg/mL (≈ 0.0409 µM)
[16]
  MIC: 0.5 µg/mL (≈ 1.28 µM)
[17]
  MIC: 0.5 µg/mL (≈ 1.28 µM)
[18]
  MIC: 1 µg/mL (≈ 2.55 µM)
[19]
  IC50 at 24 h: 72.6 µg/mL (≈ 185 µM)
[20]
  MIC: 0.063 µg/mL (≈ 0.161 µM)
[21]
  MIC: 0.032 µg/mL (≈ 0.0817 µM)
[22]
  MIC: 0.063 µg/mL (≈ 0.161 µM)
[23]
  MIC: 0.063 µg/mL (≈ 0.161 µM)
[24]
  MIC: 0.063 µg/mL (≈ 0.161 µM)
[25]
  MIC: 0.125 µg/mL (≈ 0.319 µM)
[26]
  MIC: 0.063 µg/mL (≈ 0.161 µM)
[27]
  MIC: 0.25 µg/mL (≈ 0.639 µM)
[28]
  MIC: 0.25 µg/mL (≈ 0.639 µM)
[29]
  MIC: 0.016 µg/mL (≈ 0.0409 µM)
[30]
  MIC: 0.032 µg/mL (≈ 0.0817 µM)
[31]
  MIC: 0.125 µg/mL (≈ 0.319 µM)
[32]
  MIC: 0.125 µg/mL (≈ 0.319 µM)
[33]
  MIC: 0.016 µg/mL (≈ 0.0409 µM)
[34]
  MIC: 0.125 µg/mL (≈ 0.319 µM)
[35]
  MIC: 0.063 µg/mL (≈ 0.161 µM)
[36]
  MIC: 0.063 µg/mL (≈ 0.161 µM)
[37]
  MIC: 0.125 µg/mL (≈ 0.319 µM)
[38]
  MIC: 0.125 µg/mL (≈ 0.319 µM)
[39]
  MIC: 0.125 µg/mL (≈ 0.319 µM)
[40]
  MIC: 0.032 µg/mL (≈ 0.0817 µM)
[41]
  MIC: 0.063 µg/mL (≈ 0.161 µM)
[42]
  MIC: 0.063 µg/mL (≈ 0.161 µM)
[43]
  MIC: < 0.016 µg/mL
[44]
  MIC: 0.063 µg/mL (≈ 0.161 µM)
[45]
  MIC: 0.063 µg/mL (≈ 0.161 µM)
[46]
  MIC: 0.063 µg/mL (≈ 0.161 µM)
[47]
  MIC: 0.016 µg/mL (≈ 0.0409 µM)
[48]
  MIC: 0.063 µg/mL (≈ 0.161 µM)
[49]
  MIC: 0.031 µg/mL (≈ 0.0792 µM)
[50]
  MIC: 0.031 µg/mL (≈ 0.0792 µM)
[51]
  MIC: 0.031 µg/mL (≈ 0.0792 µM)
[52]
  MIC: 0.031 µg/mL (≈ 0.0792 µM)
[53]
  MIC: 0.031 µg/mL (≈ 0.0792 µM)
